Values after ≈ are worked out from the molar mass of the structure shown. Like-named read-outs stand apart in the source and are kept apart here.
Tests used:
[1] = tested on: human peripheral blood mononuclear cells (PBMCs); experiment: Measurement of cell morphology: size (FSC-A) and granularity (SSC-A) by flow cytometry; assay type: cell-based; details: for concentration from which changes in PBMCs granularity (SSC-A) occurred / concentration causing statistically significant changes in FSC-A parameter: 24 h incubation; for activity at 10 µM / activity at 50 µM / activity at 100 µM / activity at 250 µM / activity at 500 µM / activity at 5000 µM: Homo sapiens, PBMC, 4 h; for activity at 10 µM: 0.01 mM; for activity at 50 µM: 0.05 mM; for activity at 100 µM: 0.1 mM; for activity at 250 µM: 0.25 mM; for activity at 500 µM: 0.5 mM; for activity at 5000 µM: 5.0 mM; for increase in FSC-A parameter / increase in SSC-A parameter: strongest change, concentration and time not given
Method: (§1) PBMCs were isolated from leucocyte-buffy coat collected from blood obtained in Blood Bank in Lodz, Poland. […] The testing was approved by the Bioethics Committee of the University of Lodz No. KBBN-UŁ/I/3/2013. PBMCs were diluted with PBS (1:4) and isolated using LSM (1.077 g/cm^3) by centrifugation at 600 g for 30 min at 20°C. PBMCs were collected, suspended in erythrocyte lysis buffer (150 mM NH4Cl, 10 mM NaHCO3, 1 mM EDTA, pH 7.4) and incubated for 5 min at 20°C. Then, PBS was added immediately, and the cells were centrifuged at 200 g for 15 min at 20°C. The supernatant was decanted, and the cells were washed twice with RPMI with L-glutamine and 10% fetal bovine serum (FBS) at 200 g for 15 min. The cells were resuspended in RPMI medium with L-glutamine, 10% FBS and penicylin-streptomycin (0.5%) and counted in haemocytometer. […] The viability of the cells was over 95%.
The cells were then analyzed using a flow cytometry (LSR II; Becton-Dickinson). FMC gate on PBMCs has been established for data acquisition, and cell size and granularity were evaluated with simultaneous separate detection of low-angle (FSC-A) and right-angle (SSC-A) light scattering. […] The light scattered near the forward direction (low angle) is expected to be proportional to particle size (volume), whereas scattering at the right angle depends on cell granularity (internal properties of the scattered particles).

[2] = tested on: human peripheral blood mononuclear cells (PBMCs); experiment: Determination of the level of adenosine-5'-triphosphate (ATP), luciferase bioluminescence; assay type: cell-based; details: for concentration from which a decrease in ATP level was observed / ATP level decreased by up to: 24 h; for concentration from which a decrease in ATP level was observed: significant vs control; for IC50: PBMC, human PBMCs, 24 h incubation, unit inferred, read-out: IC50 for changes in ATP level; for ATP level decreased by up to: 10 mM, control = 100%
Method: as §1
The level of ATP in the cells was determined by bioluminescence measurement at 560 nm using recombinant luciferase and its substrate, D-luciferin. The high sensitivity of method enables detection of 0.1 pM ATP. The reaction proceeds in two stages. In the first step, as a result of the reaction of ATP with luciferin, a complex of adenosine with luciferin is formed with simultaneous releasing of phosphate group. Secondly the complex reacts with oxygen resulting in a formation of oxyluciferin and adenosine monophosphate (AMP). Oxyluciferin returning from its excited state to the base state emits luminescence. The reaction requires the presence of magnesium ions.

[3] = tested on: human peripheral blood mononuclear cells (PBMCs); experiment: Cell viability (necrotic changes), calcein-AM/propidium iodide staining, flow cytometry; assay type: cell-based; details: for concentration from which a decrease in cell viability was noted: significant vs control (P < 0.05); for IC50: PBMC, human PBMCs, 24 h incubation, unit mM printed in b27 only
Method: as §1
The calcein-AM/propidum iodide (PI) viability test is commonly used in toxicity assays to detect cell membrane integrity and to quantify the number of viable and necrotic cells. The calcein-AM is hydrolyzed to calcein, which has a negative charge and penetrates living cells, staining them green. PI is one of the most widely used fluorescent markers for staining of necrotic cells. This compound penetrates the cells, in which membrane was damaged, and binds to DNA. This dye has two positive charges, which prevent it from entering intact cells. […] After the incubation, the samples were centrifuged at 300 g for 5 min at 4°C, the supernatant was decanted, and the cells were supplemented with RPMI with L-glutamine and 10% FBS. The samples were treated with calcein-AM and PI in the final concentrations of 0.1 and 1 μM, respectively and incubated for 15 min at 37°C in total darkness. The analysis was performed by flow cytometry (Becton Dickinson, LSR II). FCM gate on PBMCs has been established for data acquisition, and the fluorescence was measured with excitation/emission maxima of 494/517 nm and 535/617 nm for calcein and PI, respectively. The data were recorded for a total of 10,000 events per sample.

PBMCs = details: cited from earlier work
[4] = tested on: choriocarcinoma cell line; details: MTT test; cited from earlier work
[5] = tested on: HUVEC cell line, human kidney cells 293, placenta JEG3 cells; details: MTT; cited from earlier work
[6] = read-out: FSC-A (percent of control)
[7] = read-out: SSC-A (percent of control)

Row | Structure (SMILES) | concentration from which changes in PBMCs granularity (SSC-A) occurred [1] [mM] | activity at 10 µM [1, 6] [%] | activity at 10 µM [1, 7] [%] | activity at 50 µM [1, 6] [%] | activity at 50 µM [1, 7] [%] | activity at 100 µM [1, 6] [%] | activity at 100 µM [1, 7] [%] | activity at 250 µM [1, 6] [%] | activity at 250 µM [1, 7] [%] | activity at 500 µM [1, 6] [%] | activity at 500 µM [1, 7] [%] | activity at 5000 µM [1, 6] [%] | activity at 5000 µM [1, 7] [%] | concentration from which a decrease in ATP level was observed [2] [mM] | IC50 [2] [mM] | concentration from which a decrease in cell viability was noted ([3]; 24 h) [mM] | IC50 [3] [mM] | concentration causing statistically significant changes in FSC-A parameter [1] [mM] | increase in FSC-A parameter [1] [%] | increase in SSC-A parameter [1] [%] | also measured
1 | NCP(=O)(O)O [AMPA, aminomethylphosphonic acid] | ≥ 5 | 101 ± 4.61 | 101 ± 3.75 | 101 ± 4.45 | 100 ± 3.47 | 101 ± 5.04 | 101 ± 2.26 | 101 ± 3.96 | 101 ± 5.74 | 102 ± 3.93 | 101 ± 5.35 | 99.6 ± 5.18 | 102 ± 4.76 | ≥ 5 | > 10 | ≥ 0.5 | > 10 | – | – | – | –
2 | O=P(O)(O)CNCP(=O)(O)O [Bis-(phosphonomethyl)amine, bis-(phosphonomethyl)amine] | ≥ 7.5 | 101 ± 2.38 | 98.4 ± 2.94 | 99.7 ± 2.54 | 100 ± 2.55 | 99.6 ± 2.04 | 100 ± 3.68 | 100 ± 2.68 | 100 ± 2 | 101 ± 3.34 | 101 ± 1.12 | 100 ± 3.88 | 103 ± 3.17 | ≥ 0.5 | 5.3 | ≥ 7.5 | 8.7 | ≥ 7.5 | 9 | 92 | ATP level decreased by up to [2]: 3.4%; PBMCs viability decreased by up to ([3]; 10 mM, 24 h, control = 100%): 37.2%
3 | O=C(O)CNCP(=O)(O)O [Glyphosate, N-phosphonomethylglycine, reference compound] | ≥ 0.5 | 102 ± 3.55 | 99.2 ± 4.71 | 102 ± 2.94 | 99.7 ± 7.75 | 102 ± 2.38 | 101 ± 9.59 | 102 ± 4.69 | 101 ± 8.1 | 102 ± 3.89 | 102 ± 5.94 | 101 ± 3 | 104 ± 7.27 | ≥ 5 | 9.6 | – | > 10 | – | – | – | IC50 (cytotoxic effects) (PBMCs): 56.4 µg/mL (≈ 334 µM); EC50 [4]: 16 mM; concentration significantly affecting cell viability [5]: 100 µM; decrease in cell viability ([3]; 10 mM, 24 h, control = 100%): 2.7%
4 | O=P(O)(O)CO [Hydroxy-methylphosphonic acid, hydroxymethylphosphonic acid] | ≥ 5 | 100 ± 2 | 96.8 ± 4.77 | 100 ± 1.84 | 97.6 ± 4.71 | 100 ± 1.91 | 99.4 ± 1.17 | 101 ± 3.68 | 100 ± 3.33 | 100 ± 2.4 | 101 ± 2.05 | 100 ± 2.94 | 102 ± 2.14 | ≥ 5 | > 10 | ≥ 7.5 | > 10 | – | – | – | –
5 | CN(CC(=O)O)CP(=O)(O)O [N-methylglyphosate] | ≥ 5 | 102 ± 3.97 | 101 ± 4.68 | 102 ± 2.66 | 101 ± 4.81 | 103 ± 3.27 | 102 ± 3.57 | 101 ± 5.72 | 102 ± 4.73 | 101 ± 4.66 | 102 ± 8.82 | 100 ± 4.82 | 102 ± 7.27 | ≥ 0.5 | > 10 | ≥ 7.5 | > 10 | – | – | – | –
6 | O=C(O)CN(CC(=O)O)CP(=O)(O)O [PMIDA, N-(phosphonomethyl)iminodiacetic acid] | 10 | 100 ± 2.09 | 97.5 ± 4.97 | 100 ± 2.21 | 98.1 ± 5.81 | 100 ± 3.36 | 99.2 ± 5.42 | 100 ± 2.65 | 99.3 ± 4.63 | 100 ± 2.65 | 99.8 ± 6.3 | 101 ± 4.59 | 105 ± 5.12 | ≥ 5 | 6.1 | ≥ 5 | 7.9 | 10 | 13 | 150 | ATP level decreased by up to [2]: 2.1%; PBMCs viability decreased by up to ([3]; 10 mM, 24 h, control = 100%): 3.4%
